According to PMC9135253, “Potential of phenothiazines to synergistically block calmodulin and reactivate PP2A in cancer cells” (PLoS ONE, 2022):
“And” between values parts separate entries of the source, which are not always exact repeats. Equal entries are not always repeated. Where two headings read alike, the source gives them in different places. Each block holds one molecule with its values, some of them ahead of it.

Tests used:
Format in all cases: cell-based
[1] = system: pERK/ERK in MIA PaCa-2 cells; assay: Western blot of MAPK signaling output (pERK/ERK); conditions: for potency relative to Flu-M in MAPK-signaling (pERK) inhibition: MIA PaCa-2; for normalized pERK/ERK ratio %: MIA PaCa-2 + EGF
MDA-MB-231 cells [2] = assay: 2D cell viability assay (alamarBlue), MDA-MB-231; conditions: MDA-MB-231, 72 h
MIA PaCa-2 cells = assay: 2D cell viability assay (alamarBlue), MIA PaCa-2; conditions: MIA PaCa-2, 72 h
HEK-293 EBNA cells = assay: 2D cell viability assay (alamarBlue), HEK-293 EBNA; conditions: 72 h
[3] = system: NCI-H358 (KRAS-G12C) 3D spheroids; assay: 3D spheroid formation assay (alamarBlue), NCI-H358
Protocol: (§1) 3D spheroid formation assays were performed in 96-well low-attachment, suspension culture plates (cat. no. 655185, Cellstar, Greiner Bio-One) under serum free conditions. About 1000 cells per well were seeded in 50 μL RPMI medium (cat. no. 52400–025, Gibco, ThermoFisher Scientific) containing 0.5% (v/v) MethoCult (cat. no. SF H4636, Stemcell technologies), 1X B27 (cat. no. 17504044, Gibco, ThermoFisher Scientific), 25 ng/mL EGF (cat. no. E9644, Sigma-Aldrich) and 25 ng/ mL FGF (cat. no. RP-8628, ThermoFisher Scientific). Cells were cultured for 3 days and then treated with compounds or vehicle control (DMSO 0.1% (v/v) in growth medium) for another 3 days. The cells were supplemented with fresh growth medium on the third day together with the drug treatment. Spheroid formation efficiency was analyzed by alamarBlue assay reagent (cat. no. DAL1100, ThermoFisher Scientific).
(§2) A 10% (v/v) final volume of alamarBlue reagent was added to each well of the plate and incubated for 4 h at 37°C. Then the fluorescence intensity (λexcitation 560 ± 5 nm and λemission 590 ± 5 nm) was measured using the FLUOstar OPTIMA plate reader (BMG Labtech, Germany).
(§3) (A) Heatmap of ATARiS gene sensitivity scores of two KRAS dependent cell lines (NCI-H358 and MDA-MB-231) and a BRAF dependent cell line (A375). Negative values (shaded red) indicate sensitivity of the cell line proliferation to the knockdown of shown genes, whereas positive scores (shaded blue) indicate insensitivity. (B) IC50 values for indicated compounds in Ras pathway mutant cell lines NCI-H358, MDA-MB231 and A375 grown as 3D spheroids under serum free conditions. […] Statistical comparisons were done using the average values across all three cell lines. […] Positive scores indicate synergistic drug interactions whereas negative scores would denote antagonistic drug interactions. A score of zero would indicate no antagonistic or synergistic effect. (D) Flow cytometric analysis of apoptosis in MDA-MB-231 cells. […] Benzethonium chloride and DMSO treated cells were used as positive and negative controls, respectively, for setting the gates. Percentage of total apoptotic cells (early and late stage) from two biological repeats (mean ± SD) is presented. Statistical analysis was performed using Fisher’s exact test comparing the total number of viable and apoptotic cells from two biological repeats. (E) Effect of inhibitors on cellular apoptosis studied using Caspase-3/7Glo assay. […] The caspase-3/7 activity was measured as a luminescence read-out and normalized to the vehicle control, 0.05% (v/v) DMSO. […] GAPDH detection was used as loading control.

[4] = system: A375 (BRAF-V600E) 3D spheroids; assay: 3D spheroid formation assay (alamarBlue), A375
Protocol: as §1, §2, §3

[5] = system: MDA-MB-231 (KRAS-G13D) 3D spheroids; assay: 3D spheroid formation assay (alamarBlue), MDA-MB-231
Protocol: as §1, §2, §3

[6] = system: K-RasG12V (Rluc8-/GFP2-tagged) in HEK-293 EBNA cells; assay: K-RasG12V nanoclustering-BRET assay; conditions: for K-RasG12V BRET: compounds 20 μM, FTI-277 1 μM, OphA 2.5 μM, 24 h
[7] = system: H-RasG12V (Rluc8-/GFP2-tagged) in HEK-293 EBNA cells; assay: H-RasG12V nanoclustering-BRET assay; conditions: for H-RasG12V BRET: compounds 20 μM, FTI-277 1 μM, OphA 2.5 μM, 24 h
MDA-MB-231 cells [8] = assay: Flow cytometry-based apoptosis assay (Annexin V-FITC / 7-AAD); conditions: DT-061 10 μM, calmidazolium 5 μM or combination, 24 h
Protocol: MDA-MB-231 cells were grown for 24 h in complete RPMI medium. The next day the cells were treated with inhibitors for 24 h. […] The cells were labelled using the Annexin V-FITC / 7-AAD apoptosis-detection kit (Beckman-Coulter, cat. no. B60224-AB) according to the manufacturer’s instruction.
as §3, with “Negative” for “(A) Heatmap of ATARiS gene sensitivity scores of two KRAS dependent cell lines (NCI-H358 and MDA-MB-231) and a BRAF dependent cell line (A375). Negative”

[9] = 2 h, trametinib 1 μM, AMG-510 1 μM, calmidazolium 20 μM, DT-061 20 μM, combination each 10 μM, fluphenazine mustard 20 μM, replicates N1-N3
[10] = Homo sapiens, A-375, 72 h, A375 3D spheroids, serum free, 3 days treatment, replicates N1, N2
[11] = Homo sapiens, A-375, A375 3D spheroids, Mean, n = 2
[12] = A/D plasmid ratio 4/1, individual replicates N1.1-N3.4
[13] = A/D plasmid ratio 4/1, individual replicates N1.1-N2.4
[14] = early and late stage, replicates N1, N2
[15] = Homo sapiens, NCI-H358, NCI-H358 3D spheroids, Mean, n = 2, read-out: IC50 values
[16] = NCI-H358 3D spheroids, serum free, 3 days treatment, replicates N1, N2, read-out: IC50 values
[17] = A375 3D spheroids, serum free, 3 days treatment, replicates N1, N2
[18] = Homo sapiens, MDA-MB-231, MDA-MB-231 3D spheroids, Mean, n = 2, read-out: IC50 values
[19] = MDA-MB-231 3D spheroids, serum free, 3 days treatment, replicates N1, N2, read-out: IC50 values
[20] = K-RasG12V nanoclustering-BRET dose response (0.1–80 μM; OphA 0.3–20 μM), replicates
[21] = K-RasG12V nanoclustering-BRET, mean
[22] = H-RasG12V nanoclustering-BRET dose response (0.1–80 μM; OphA 0.3–20 μM), replicates
[23] = H-RasG12V nanoclustering-BRET, mean

Structure (SMILES): C=CC(=O)N1CCN(c2nc(=O)n(-c3c(C)ccnc3C(C)C)c3nc(-c4c(O)cccc4F)c(F)cc23)[C@@H](C)C1 [AMG-510]
potency relative to Flu-M in MAPK-signaling (pERK) inhibition [1]: at least 20 times
normalized pERK/ERK ratio % [1, 9]: 29.0898% and 30.5706% and 27.2049%
normalized pERK/ERK ratio % ([1]; same treatments, mean): 28.96%
2D monolayer DSS3 (MDA-MB-231 cells [2]; Mean): 4.2
2D monolayer DSS3 (MDA-MB-231 cells [2]; replicates N1-N3): 1.7 and 3 and 7.9
2D monolayer DSS3 (MIA PaCa-2 cells; Mean): 64.97
2D monolayer DSS3 (MIA PaCa-2 cells; replicates N1-N3): 62.6 and 65 and 67.3
2D monolayer DSS3 (HEK-293 EBNA cells; Mean): 15.93
2D monolayer DSS3 (HEK-293 EBNA cells; replicates N1-N3): 22.8 and 12.8 and 12.2

Structure (SMILES): C=CC(=O)N1CCN(c2ncnc3c(F)c(-c4c(O)cccc4F)c(Cl)cc23)CC1 [ARS-1620]
IC50 ([3]; Homo sapiens, NCI-H358, 72 h, read-out: IC50 values, NCI-H358 3D spheroids, serum free, 3 days treatment, replicates N1, N2): 0.6 µM
IC50 ([3]; Homo sapiens, NCI-H358, read-out: IC50 values, NCI-H358 3D spheroids, Mean, n = 2): 0.46 µM
IC50 ([3]; read-out: IC50 values, NCI-H358 3D spheroids, serum free, 3 days treatment, replicates N1, N2): 0.32 µM
IC50 [4, 10]: > 40 µM
IC50 [4, 11]: > 40 µM
IC50 ([5]; Homo sapiens, MDA-MB-231, 72 h, read-out: IC50 values): > 40 µM
IC50 ([5]; Homo sapiens, MDA-MB-231, read-out: IC50 values): > 40 µM

Structure (SMILES): COC(=O)[C@H](CCSC)NC(=O)c1ccc(NC[C@@H](N)CS)cc1-c1ccccc1 [FTI-277]
K-RasG12V BRET [6, 12]: 72.2368 and 88.8749 and 88.6228 and 90.7219 and 73.1065 and 73.006 and 71.9005 and 74.3032 and 75.1082 and 75.0152 and 73.992 and 87.4754
K-RasG12V BRET ([6]; mean): 78.7
H-RasG12V BRET [7, 13]: 55.9675 and 54.6788 and 57.991 and 55.5016 and 58.8518 and 57.6476 and 60.7427 and 58.4164
H-RasG12V BRET ([7]; mean): 57.47

Structure (SMILES): CC(C)(C)CC(C)(C)c1ccc(OCCOCC[N+](C)(C)Cc2ccccc2)cc1 [benzethonium Cl, Benzethonium chloride]
apoptotic cells (%) (MDA-MB-231 cells [8]; [14]): 93.0493% and 96.0998%
apoptotic cells (%) (MDA-MB-231 cells [8]; mean): 94.57%

IC50 ([3]; Homo sapiens, NCI-H358, 72 h, NCI-H358 3D spheroids, serum free, 3 days treatment, replicates N1, N2, read-out: IC50 values): 1.3 µM
IC50 [3, 15]: 1.3 µM
IC50 [3, 16]: 1.29 µM
IC50 [4, 17]: 1.51 µM
IC50 [4, 10]: 1.1 µM
IC50 [4, 11]: 1.31 µM
IC50 [5, 18]: 1.37 µM
IC50 [5, 19]: 0.83 µM and 1.9 µM
Structure (SMILES): Clc1ccc(C(c2ccc(Cl)cc2)n2cc[n+](CC(OCc3ccc(Cl)cc3Cl)c3ccc(Cl)cc3Cl)c2)cc1 (stereo not shown) [calmidazolium]
apoptotic cells (%) (MDA-MB-231 cells [8]; [14]): 46.8015% and 19.4293%
apoptotic cells (%) (MDA-MB-231 cells [8]; mean): 33.12%
DSS3 BRET score [6, 20]: 7.4 and 5.3 and 6.1
DSS3 BRET score [6, 21]: 6.27
K-RasG12V BRET [6, 12]: 56.1219 and 37.0972 and 36.7653 and 36.0615 and 56.3093 and 55.7392 and 55.8068 and 41.7975 and 44.4475 and 43.3047 and 43.8108 and 37.7034
K-RasG12V BRET ([6]; mean): 45.41
DSS3 BRET score [7, 22]: 4.1 and 3.4
DSS3 BRET score [7, 23]: 3.75
H-RasG12V BRET [7, 13]: 65.4602 and 65.6531 and 66.0593 and 64.447 and 71.623 and 67.855 and 69.3028 and 69.9269
H-RasG12V BRET ([7]; mean): 67.54
normalized pERK/ERK ratio % ([1]; 2 h, trametinib 1 μM, AMG-510 1 μM, calmidazolium 20 μM, DT-061 20 μM, combination each 10 μM, fluphenazine mustard 20 μM, replicates N1-N3, listed as camidazolium): 79.2728% and 51.9352% and 71.8958%

Structure (SMILES): OCCN1CCN(CCCN2c3ccccc3Sc3ccc(C(F)(F)F)cc32)CC1 [fluphenazine]
effect on the RasG12V-BRET signals (in words) ([6]; K-RasG12V and H-RasG12V biosensors): Neither the PP2A activator DT-061, nor Flu had an effect
DSS3 BRET score [6, 20]: 0
DSS3 BRET score [6, 21]: 0
K-RasG12V BRET [6, 12]: 116.984 and 104.752 and 101.237 and 99.6761 and 117.221 and 114.254 and 111.203 and 106.486 and 102.332 and 104.758 and 105.192 and 105.738
K-RasG12V BRET ([6]; mean): 107.49
DSS3 BRET score [7, 22]: 0
DSS3 BRET score [7, 23]: 0
H-RasG12V BRET [7, 13]: 118.298 and 116.824 and 118.266 and 116.921 and 102.254 and 101.937 and 104.771 and 99.5349
H-RasG12V BRET ([7]; mean): 109.85
2D monolayer DSS3 (MDA-MB-231 cells [2]; Mean): 28.4
2D monolayer DSS3 (MDA-MB-231 cells [2]; replicates N1-N3): 26.6 and 29.8 and 28.8
2D monolayer DSS3 (MIA PaCa-2 cells; Mean): 46.37
2D monolayer DSS3 (MIA PaCa-2 cells; replicates N1-N3): 33.6 and 46.1 and 59.4
2D monolayer DSS3 (HEK-293 EBNA cells; Mean): 9.5
2D monolayer DSS3 (HEK-293 EBNA cells; replicates N1-N3): 9.9 and 9.2 and 9.4

Structure (SMILES): CC(C)=C[C@H]1C[C@H](C)[C@]2(CC[C@]3(C)C[C@H]4[C@H](C(=O)C[C@@]4(C)O)/C(C=O)=C\C[C@H]32)O1 [ophiobolin A]
DSS3 BRET score [6, 20]: 21.8 and 20.9
DSS3 BRET score [6, 21]: 21.35
K-RasG12V BRET ([6]; mean): 75.39
DSS3 BRET score [7, 22]: 7.5 and 2.2
DSS3 BRET score [7, 23]: 4.85
H-RasG12V BRET ([7]; mean): 87.26

Structure (SMILES): CC(=O)Nc1cccc(-n2c(=O)n(C3CC3)c(=O)c3c(Nc4ccc(I)cc4F)n(C)c(=O)c(C)c32)c1 [trametinib]
potency relative to Flu-M in MAPK-signaling (pERK) inhibition [1]: at least 20 times
normalized pERK/ERK ratio % [1, 9]: 32.0097% and 10.8438% and 18.176%
normalized pERK/ERK ratio % ([1]; same treatments, mean): 20.34%

IC50 [3, 15]: 0.69 µM
IC50 [3, 16]: 0.39 µM and 0.98 µM
IC50 [4, 17]: 0.36 µM
IC50 [4, 10]: 0.25 µM
IC50 [4, 11]: 0.31 µM
IC50 ([5]; Homo sapiens, MDA-MB-231, 72 h, MDA-MB-231 3D spheroids, serum free, 3 days treatment, replicates N1, N2, read-out: IC50 values): 0.43 µM
IC50 [5, 18]: 0.59 µM
IC50 [5, 19]: 0.74 µM
Structure (SMILES): CN1CCN(CCCN2c3ccccc3Sc3ccc(C(F)(F)F)cc32)CC1 [triflouperazine, trifluoperazine]
